In patent US12178822B2, “Methods of treating hematological malignancies using 2-(2,6-dioxopiperidin-3-yl)-4-((2-fluoro-4-((3-morpholinoazetidin-1-yl)methyl)benzyl)amino)isoindoline-1,3-dion” (Celgene Corporation, priority 2019, dated 2024):

Assays:
Assay type in all cases: cell-based
[1] = tested on: SVSL/VL51; experiment: Cell proliferation and viability / apoptosis flow cytometry assay, SVSL; conditions: SVSL (MZL, SMZL); 120 hours
Description: (§1) The following are examples of cell-based assays that can be used to determine the anti-proliferative activity and apoptotic effect of compounds described herein using exemplary hematological cell lines (Table 1). The in vitro growth inhibitory activity of Compound 1 described herein was evaluated using a 384-well flow cytometry assay.
(§2) The cell lines were plated under the conditions shown in Table 1 in 384-well flat bottom plates and incubated with increasing concentrations of compound ranging from 0.00015 to 10 μM or dimethyl sulfoxide (DMSO) control. The final concentration of DMSO was 0.1% (v/v). Following the addition of Compound 1 or DMSO and incubation for 120 hours, cell number and cell death were analyzed by flow cytometry (Attune®, Thermo Fisher) using Annexin V and the live-cell impermeant DNA dye, DRAQ7. […]
(§3) Flow cytometry data analysis was then performed using the Flow Jo_v10 software to determine the number of viable cells (Annexin V and DRAQ7 double negative staining cells) and percentage of apoptotic cells (Annexin V positive cells) for each condition. […] The IC50 (50% inhibitory concentration) and Emax (maximum efficacy achieved) values were then calculated by performing nonlinear regression curve fitting using log(inhibitor) vs. normalized response—variable slope analysis on GraphPad Prism 7.03. […]

[2] = tested on: Daudi; experiment: Cell proliferation and viability / apoptosis flow cytometry assay, Daudi; conditions: Daudi (BL); 120 hours
Description: as §1, §2, §3

[3] = tested on: BL-41; experiment: Cell proliferation and viability / apoptosis flow cytometry assay, BL-41; conditions: 120 hours
Description: as §1, §2, §3

[4] = tested on: MDS-L; experiment: Cell proliferation and viability / apoptosis flow cytometry assay, MDS-L; conditions: 120 hours
Description: as §1, §2, §3

[5] = tested on: HNT-34; experiment: Cell proliferation and viability / apoptosis flow cytometry assay, HNT-34; conditions: HNT-34 (AML); 120 hours
Description: as §1, §2, §3

[6] = tested on: NCI-H929; experiment: Cell proliferation and viability / apoptosis flow cytometry assay, NCI-H929; conditions: NCI-H929 (MM); 120 hours
Description: as §1, §2, §3

[7] = tested on: OPM-2; experiment: Cell proliferation and viability / apoptosis flow cytometry assay, OPM-2; conditions: OPM-2 (MM); 120 hours
Description: as §1, §2, §3

[8] = tested on: HuT-102; experiment: Cell proliferation and viability / apoptosis flow cytometry assay, HuT-102; conditions: HuT-102 (TCL); 120 hours
Description: as §1, §2, §3

[9] = tested on: Karpas-299; experiment: Cell proliferation and viability / apoptosis flow cytometry assay, Karpas-299; conditions: Karpas-299 (TCL); 120 hours
Description: as §1, §2, §3

[10] = tested on: JJN-3; experiment: Cell proliferation and viability / apoptosis flow cytometry assay, JJN-3; conditions: JJN-3 (MM, PCL); 120 hours
Description: as §1, §2, §3

[11] = tested on: SK-MM-1; experiment: Cell proliferation and viability / apoptosis flow cytometry assay, SK-MM-1; conditions: SK-MM-1 (MM, PCL); 120 hours
Description: as §1, §2, §3

[12] = tested on: L-363; experiment: Cell proliferation and viability / apoptosis flow cytometry assay, L-363; conditions: L-363 (MM, PCL); 120 hours
Description: as §1, §2, §3

[13] = tested on: Karpas-231; experiment: Cell proliferation and viability / apoptosis flow cytometry assay, Karpas-231; conditions: Karpas-231 (ALL); 120 hours
Description: as §1, §2, §3

[14] = tested on: KOPN-8; experiment: Cell proliferation and viability / apoptosis flow cytometry assay, KOPN-8; conditions: KOPN-8 (ALL); 120 hours
Description: as §1, §2, §3

[15] = tested on: L-428; experiment: Cell proliferation and viability / apoptosis flow cytometry assay, L-428; conditions: L-428 (HL); 120 hours
Description: as §1, §2, §3

[16] = tested on: L-591; experiment: Cell proliferation and viability / apoptosis flow cytometry assay, L-591; conditions: L-591 (HL); 120 hours
Description: as §1, §2, §3

O=C1CC[C@H](N2C(=O)c3cccc(NCc4ccc(CN5CC(N6CCOCC6)C5)cc4F)c3C2=O)C(=O)N1 [Compound 1, (S)-2-(2,6-dioxopiperidin-3-yl)-4-((2-fluoro-4-((3-morpholinoazetidin-1-yl)methyl)benzyl)amino)isoindoline-1,3-dione]
% Viable Cells Emax (percentage of tumor cells remaining) [1]: 34.07% | % Viable Cells Emax (percentage of tumor cells remaining) [2]: 0% | % Viable Cells Emax (percentage of tumor cells remaining) [3]: 96.65% | % Viable Cells Emax (percentage of tumor cells remaining) [4]: 146.7% | % Viable Cells Emax (percentage of tumor cells remaining) [5]: 20.47% | % Viable Cells Emax (percentage of tumor cells remaining) [6]: 6.1% | % Viable Cells Emax (percentage of tumor cells remaining) [7]: 6.65% | % Viable Cells Emax (percentage of tumor cells remaining) [8]: 36.34% | % Viable Cells Emax (percentage of tumor cells remaining) [9]: 8.43% | % Viable Cells Emax (percentage of tumor cells remaining) [10]: 21.6% | % Viable Cells Emax (percentage of tumor cells remaining) [11]: 3% | % Viable Cells Emax (percentage of tumor cells remaining) [12]: 27.6% | % Viable Cells Emax (percentage of tumor cells remaining) [13]: 0% | % Viable Cells Emax (percentage of tumor cells remaining) [14]: 38.3% | % Viable Cells Emax (percentage of tumor cells remaining) [15]: 47.3% | % Viable Cells Emax (percentage of tumor cells remaining) [16]: 34.6%
